The numbers were not newly measured in patent publication US20210154215A1, “Antifungal Cuticle Oil Composition” (Zenvision Pharma LLP, priority 2018, published 2021), which cites them from elsewhere.

For the molecule `C=C1CCN([C@H](C)[C@](O)(Cn2cncn2)c2ccc(F)cc2F)CC1` [Efinaconazole, (2R,3R)-2-(2,4-difluorophenyl)-3-(4-methylenepiperidin-1yl)-1-(1H-1,2,4-triazol-1-yl)butan-2ol], the Solubility in water result was “practically insoluble”.
On to `OB1OCc2cc(F)ccc21` [Tavaborole, 5-fluoro-1,3-dihydro-1-hydroxy-2,1-benzoxaborole], for which the Solubility in ethanol result is listed as “freely soluble” and the Solubility in water result is “slightly soluble”. The “Solubility in propylene glycol” value (propylene glycol) is recorded as “freely soluble”.
Regarding `CN(C/C=C/C#CC(C)(C)C)Cc1cccc2ccccc12.Cl` [Terbinafine hydrochloride, (E)-N-(6,6-dimethyl-2-hepten-4-ynyl)-N-methyl-1-naphthalenemethanamine hydrochloride], the Solubility in ethanol entry is given as “soluble” and the Solubility in water result was “slightly soluble”. Further, the Solubility in methanol result (methanol) was “freely soluble”. Moreover, the “Solubility in methylene chloride” value (methylene chloride) was “freely soluble”.
